Test results reported in patent US8324395B2, “Heterocyclic compound and use thereof” (Takeda Pharmaceutical Company Limited, priority 2007, dated 2012).

Columns and labels:
BRAF (V600E) kinase = biological target: T1, BRAF (V600E) kinase (Homo sapiens, UniProt P15056, V600E); test: Determination of BRAF (V600E) kinase inhibitory activity; format: biochemical; settings: 1.0 μM test compound; BRAF (V600E) enzyme, GST-MEK1 (K96R) substrate, [γ-32P]ATP; read-out: Inhibitory rate (%) at 1.0 μM
T1 construct: Flag (N); made in house; host or cells: SF-21 insect cells, recombinant baculovirus BAC-V600E
Procedure: Human BRAF gene was cloned by PCR using human Testis cDNA library (Clontech) as a template. The primer used for PCR was prepared from base sequence (Genbank Accession No.: NM_004333) information of BRAF gene by adding a base sequence encoding flag peptide and a recognition sequence of the restriction enzyme to area encoding the BRAF kinase domain region, so that the protein contains an N-terminal. Flag. The primer base sequence is shown below.
The PCR reaction was conducted using Pyrobest (Takara Shuzo Co., Ltd). The obtained PCR product was electrophoresed on agarose gel (1%), the DNA fragment amplified by PCR was recovered from the gel, and then digested with restriction enzymes EcoRI and SalI. The DNA treated with the restriction enzymes was electrophoresed on agarose gel (1%), and the obtained DNA fragment was recovered. The recovered DNA fragment was ligated to plasmid pFASTBAC1 (Invitrogen) digested with restriction enzymes EcoRI and SalI to give expression plasmid pFB-BRAF, and the base sequence of the insert fragment was confirmed. In addition, mutation was introduced into V600E using a Quick change Site Directed Mutagenesis kit (Stratagene). The base sequences of the primers used are shown in the following.
The obtained plasmid was sequenced to confirm the introduction of mutation into V600E. The DNA was digested with restriction enzymes EcoRI and SalI, DNA treated with the restriction enzymes was electrophoresed on agarose gel (1%), and the obtained DNA fragment was recovered. The recovered DNA fragment was ligated to plasmid pFASTBAC1 (Invitrogen) digested with restriction enzymes EcoRI and SalI to give expression plasmid pFB-V600E.
Using BAC-TO-BAC Baculovirus Expression System (Invitrogen), virus stock BAC-V600E of recombinant baculovirus was prepared.
SF-21 cells were sown at 1×10^6 cells/mL to Sf-900II SFM medium (1 L, Invitrogen) containing 10% fetal bovine serum (Trace), 50 mg/L Gentamicin (Invitrogen) and 0.1% Pluronic F-68 (Invitrogen), and shaking culture was performed using a 2 L volume Erlenmeyer flask at 27° C., 100 rpm. After culturing for 24 hr, recombinant baculovirus BAC-V600E (13.4 mL) was added to the mixture, and the mixture was further cultured for 3 days. The culture medium was centrifuged at 2,000 rpm for 5 min to give virus-infected cells. The infected cells were washed with a phosphate buffered saline (Invitrogen), centrifuged under the same conditions, and the cells were preserved at −80° C. The cryopreserved cells were thawed in ice, suspended in buffer A (50 mM Tris buffer (30 mL, pH 7.4) containing 20% glycerol, 0.15 M NaCl) supplemented with Complete Protease Inhibitor (Boehringer), and ruptured 3 times with a Polytron homogenizer (Kinematica) at 20,000 rpm for 30 sec. The ruptured medium was clarified by centrifugation at 40,000 rpm for 30 min and filtered with a 0.45 μm filter. The filtrate was passed through a column packed with Anti-FLAG M2 Affinity Gel (4 mL, Sigma) at a flow rate of about 0.5 mL/min. The column was washed with buffer A, and eluted with buffer A containing 100 μg/mL of FLAG peptide. The buffer of this eluate was exchanged using NAP25 column (Amersham Bioscience) equilibrated with buffer A and the fractions were cryopreserved at −80° C.
A test compound (2.5 μL) dissolved in dimethyl sulfoxide (DMSO) was added to 37.5 μL of a reaction mixture (25 mM HEPES (pH 7.5), 10 mM magnesium acetate, 1 mM dithiothreitol) containing BRAF (V600E) enzyme (30 ng) and recombinant type protein GST-MEK1 (K96R) 250 ng, and the mixture was incubated at room temperature for 10 min. ATP solution (10 μL, 2.5 μM ATP, 0.1 μCi [γ-^32P]ATP) was added to the obtained mixture, and the mixture was reacted at room temperature for 20 min. The reaction was quenched by adding 50 μL of ice-cooled. 20% trichloroacetic acid (Wako Pure Chemical Industries, Ltd.) to the reaction mixture. […]

[1] = test system: human colon cancer cell HT-29; test: Colon cancer cell HT-29 growth suppressive action in vitro; format: cell-based; settings: 72 h, HT-29 cells, 3 days culture, SRB staining of cell protein
Procedure: A cell suspension (100 μL, 3,000 cells/well) of human colon cancer cell HT-29 (purchased from ATCC) was plated in a 96-well plate, and the cells were cultured at 37° C. in a 5% carbon dioxide gas incubator. The next day, 2-fold serial dilution of each test compound solution (diluted from maximum concentration 20 μM) (100 μL) was added, and the cells were cultured for 3 days. The culture medium containing the test compound was removed, and the cells were washed with phosphate buffer (PBS). A 50% trichloroacetic acid solution was added to the final concentration of 10% (v/v), and the mixture was stood overnight at 4° C., whereby the cells were fixed to the plate. Then, a dye SRB 0.4% (w/v) solution (dissolved in 1% acetic acid) was added at 50 μl/well, whereby the cell protein was fixed and stained (Skehan et al., Journal Of National Cancer Institute, vol. 82, pp. 1107-1112, 1990). The cells were washed 3 times with 1% acetic acid solution (200 μL/well), and 100 μL of an extract (10 mM Tris buffer) was added to extract the dye. The absorbance at an absorption wavelength […] was measured, and cell amount was measured as a protein amount. Taking the protein amount of the control group free of the test compound solution as 100%, the proportion of the residual protein amount of each treatment group was determined and the concentration of the compound necessary for suppressing the residual cell amount to 50% of the control (IC50 value) was calculated.

[2] = test system: Colon Cancer Cell HT-29 Intracellular MEK Phosphorylation; test: Colon cancer cell HT-29 intracellular MEK phosphorylation inhibitory action in vitro; format: cell-based; settings: Homo sapiens; HT-29 cells, 2 hr treatment; phosphorylated MEK1/2 (Ser217/221) by Western blot
Procedure: A cell suspension (500 μL) of human colon cancer cell HT-29 was plated in a 48-well plate (100,000 cells/well), and the cells were cultured overnight at 37° C. in the presence of 5% CO2, treated with a test compound (250 μL/well) diluted in 3-fold dilution series and cultured for two more hours. After 2 hr, the culture medium containing the test compound was removed, and the cells were lysed with SDS sample buffer (100 μL/well) and heated at 95° C. for 5 min. Thereafter, the cells were applied to SDS-PAGE, and the protein was transferred onto Sequi-Blot™ PVDF Membrane (Bio-Rad) by the Western blot method. The cells were blocked with a block-Ace solution (Snow Brand Milk Products Co., Ltd) dissolved in phosphate buffer to 5% W/V, and reacted overnight with anti-phosphorylated MEK1/2 (Ser217/221) (Cell signaling #9121) diluted 1000-fold with phosphate buffer containing 0.4% block-Ace. The membrane was washed with phosphate buffer containing 0.1% Tween 20 (Wako Pure Chemical Industries, Ltd.), and reacted at room temperature for 1 hr with HRP labeled […] (Cell signaling #7074) diluted 1000-fold with phosphate buffer containing 0.4% block-Ace. The membrane was washed in the same manner as above, chemical luminescence of a phosphorylated MEK1/2 protein labeled with the antibody, which was caused by ECL-plus Detection Reagent (Amersham bioscience), was detected by Luminescent Image Analyzer LAS-1000 (FUJIFILM Corporation). Taking the luminescence of the control group free of the test compound as 100%, the concentration (IC50 value) of the compound necessary for inhibiting the residual luminescence to 50% of the control group was calculated.

T1 sequence (P15056 457-717 V600E limits assumed): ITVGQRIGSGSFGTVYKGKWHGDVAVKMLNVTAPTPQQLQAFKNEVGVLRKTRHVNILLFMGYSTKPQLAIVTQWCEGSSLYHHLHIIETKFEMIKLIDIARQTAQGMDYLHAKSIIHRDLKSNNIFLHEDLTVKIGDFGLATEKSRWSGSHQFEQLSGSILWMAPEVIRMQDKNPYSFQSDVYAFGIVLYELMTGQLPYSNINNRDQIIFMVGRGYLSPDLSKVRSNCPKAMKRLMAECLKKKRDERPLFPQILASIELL

inhibition at 1 µM (BRAF (V600E) kinase) [%]	IC50 [1] [nM]	IC50 [2] [nM]	SMILES
99			Cc1ccc(Oc2ccc3nc(NC(=O)CO)sc3c2)cc1NC(=O)c1cccc(C2(C#N)CC2)c1 [Example A6, 3-(1-cyanocyclopropyl)-N-(5-{[2-(glycoloylamino)-1,3-benzothiazol-6-yl]oxy}-2-methylphenyl)benzamide]
99			O=C(Nc1cccc(Oc2ccc3nc(NC(=O)C4CC4)[nH]c3c2)c1)c1cccc(C(F)(F)F)c1 [Example C1, N-[3-({2-[(cyclopropylcarbonyl)amino]-1H-benzimidazol-6-yl}oxy)phenyl]-3-(trifluoromethyl)benzamide]
100			O=C(Nc1ccc(C(F)(F)F)cc1)c1cccc(Oc2ccc3nc(NC(=O)C4CC4)sc3c2)c1 [Example A25, 3-({2-[(cyclopropylcarbonyl)amino]-1,3-benzothiazol-6-yl}oxy)-N-[4-(trifluoromethyl)phenyl]benzamide]
	< 500		CC(=O)Nc1nc2ccc(Oc3cc(NC(=O)c4cccc(C(C)(C)C#N)c4Cl)ccc3F)cc2s1 [Example A47, N-(3-{[2-(acetylamino)-1,3-benzothiazol-6-yl]oxy}-4-fluorophenyl)-2-chloro-3-(1-cyano-1-methylethyl)benzamide]
100			O=C(Nc1cccc(C(F)(F)F)c1)c1cccc(Oc2ccc3nc(NC(=O)C4CC4)sc3c2)c1 [Example A29, 3-({2-[(cyclopropylcarbonyl)amino]-1,3-benzothiazol-6-yl}oxy)-N-[3-(trifluoromethyl)phenyl]benzamide]
		< 500	Cc1ccc(Oc2ccc3nc(NC(=O)C4CC4)sc3c2)cc1NC(=O)c1cccc(C(C)(C)C#N)c1 [Example A7, 3-(1-cyano-1-methylethyl)-N-[5-({2-[(cyclopropylcarbonyl)amino]-1,3-benzothiazol-6-yl}oxy)-2-methylphenyl]benzamide]
		< 500	Cc1ccc(Oc2ccc3nc(NC(=O)CO)sc3c2)cc1NC(=O)c1cccc(C(C)(C)C#N)c1 [Example A10, 3-(1-cyano-1-methylethyl)-N-(5-{[2-(glycoloylamino)-1,3-benzothiazol-6-yl]oxy}-2-methylphenyl)benzamide]
		< 500	CN1CCN(CC(=O)Nc2nc3ccc(Oc4cccc(NC(=O)c5cccc(C6(C#N)CC6)c5)c4)cc3s2)CC1 [Example A16, 3-(1-cyanocyclopropyl)-N-{3-[(2-{[(4-methylpiperazin-1-yl)acetyl]amino}-1,3-benzothiazol-6-yl)oxy]phenyl}benzamide]
		< 500	CC(C)(C#N)c1cccc(C(=O)Nc2cccc(Oc3ccc4nc(NC(=O)C5CC5)oc4c3)c2)c1 [Example B3, 3-(1-cyano-1-methylethyl)-N-[3-({2-[(cyclopropylcarbonyl)amino]-1,3-benzooxazol-6-yl}oxy)phenyl]benzamide]
	< 500		CN1CCN(CC(=O)Nc2nc3ccc(Oc4cccc(NC(=O)c5cccc(C(C)(C)C#N)c5)c4)cc3s2)CC1 [Example A13, 3-(1-cyano-1-methylethyl)-N-{3-[(2-{[(4-methylpiperazin-1-yl)acetyl]amino}-1,3-benzothiazol-6-yl)oxy]phenyl}benzamide]
100			O=C(Nc1cccc(Oc2ccc3nc(NC(=O)C4CC4)oc3c2)c1)c1cccc(C(F)(F)F)c1 [Example B1, N-[3-({2-[(cyclopropylcarbonyl)amino]-1,3-benzooxazol-6-yl}oxy)phenyl]-3-(trifluoromethyl)benzamide]
100			N#CC1(c2cccc(C(=O)Nc3cccc(Oc4ccc5nc(NC(=O)c6cocn6)sc5c4)c3)c2)CC1 [Example A15, N-[6-(3-{[3-(1-cyanocyclopropyl)benzoyl]amino}phenoxy)-1,3-benzothiazol-2-yl]-1,3-oxazole-4-carboxamide]
98		< 500	COc1ccc(NC(=O)c2cccc(C(C)(C)C#N)c2)cc1Oc1ccc2nc(NC(=O)C3CC3)sc2c1 [Example A21, 3-(1-cyano-1-methylethyl)-N-[3-({2-[(cyclopropylcarbonyl)amino]-1,3-benzothiazol-6-yl}oxy)-4-methoxyphenyl]benzamide]
	< 500		CC(=O)Nc1nc2ccc(Oc3cccc(NC(=O)c4cccc(C(C)(C)C#N)c4Cl)c3)cc2s1 [Example A41, N-(3-{[2-(acetylamino)-1,3-benzothiazol-6-yl]oxy}phenyl)-2-chloro-3-(1-cyano-1-methylethyl)benzamide]
98			N#CC1(c2cccc(C(=O)Nc3cccc(Oc4ccc5nc(NC(=O)C6CC6)sc5c4)c3)c2)CC1 [Example A1, 3-(1-cyanocyclopropyl)-N-[3-({2-[(cyclopropylcarbonyl)amino]-1,3-benzothiazol-6-yl}oxy)phenyl]benzamide]
		< 500	CC(C)(C#N)c1cccc(C(=O)Nc2cccc(Oc3ccc4nc(NC(=O)CO)sc4c3)c2)c1 [Example A14, 3-(1-cyano-1-methylethyl)-N-(3-{[2-(glycoloylamino)-1,3-benzothiazol-6-yl]oxy}phenyl)benzamide]
		< 500	O=C(CO)Nc1nc2ccc(Oc3cccc(C(=O)Nc4ccc(C(F)(F)F)cc4)c3)cc2s1 [Example A26, 3-{[2-(glycoloylamino)-1,3-benzothiazol-6-yl]oxy}-N-[4-(trifluoromethyl)phenyl]benzamide]
